Results on 24 compounds are retold here after patent US20260158009A1 (GENZYME CORPORATION, priority 2023, published 2026).

The term IC50 denotes the midpoint of a concentration-inhibition curve. A low value points to greater potency in that assay.

One assay deals with U937 cells. In words: Cellular assay in U937 cells: activity of RIPK1 inhibitors on TNFα/zVAD.fmk-induced cell death (necroptosis), CellTiter 96 AQueous (MTS) readout. In kind it is cell-based. The note with it: Homo sapiens, U-937. An outline of the steps: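 Necroptosis was measured by viable-cell MTS reduction (4 h, absorbance 490 nm) after overnight (18–24 h) 37° C culture. Cell suspensions of U937 cells carried TNFα (100 ng/ml) plus zVAD.fmk (50 μM) before compound was added. A 10-point curve (10 μM–0.26 nM or 1 μM–0.07 nM) was run in duplicate, normalised to the control lacking TNFα/zVAD.fmk.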

Assay [1] addresses T1, hRIPK1 (aa 1-375) fusion protein (Homo sapiens, UniProt Q13546).
T1 construct: hRIPK1 (aa 1-375) fusion protein
T1 sequence (Q13546 1-375): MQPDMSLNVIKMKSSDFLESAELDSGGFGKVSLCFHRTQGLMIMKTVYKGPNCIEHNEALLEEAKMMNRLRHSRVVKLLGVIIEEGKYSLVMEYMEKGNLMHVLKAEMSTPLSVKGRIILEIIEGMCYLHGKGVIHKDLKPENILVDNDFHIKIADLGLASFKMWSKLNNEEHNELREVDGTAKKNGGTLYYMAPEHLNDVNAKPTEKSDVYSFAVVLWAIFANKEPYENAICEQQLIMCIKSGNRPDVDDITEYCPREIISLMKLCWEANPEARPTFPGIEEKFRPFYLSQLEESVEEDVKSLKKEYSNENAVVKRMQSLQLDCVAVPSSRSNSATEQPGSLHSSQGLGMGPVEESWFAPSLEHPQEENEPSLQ
Briefly: ADP-Glo kinase assay: catalytic activity of RIPK1 (autophosphorylation, conversion of ATP to ADP). In kind it is biochemical. The essentials:
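The readout was ADP-Glo luminescence after a 240 min rt autophosphorylation reaction with 50 μM ATP, following 30 min preincubation of 3.6 μg/ml hRIPK1 (aa 1-375) fusion with compound at 33300-1.69 nM final in 1% DMSO. Values came from Levenberg-Marquardt nonlinear fits.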
In general terms: ADP-Glo turns the ADP formed in a reaction into a luminescent signal.

Consider `N#Cc1cncc([C@@H]2CCON2C(=O)[C@H]2CC[C@H](Cn3ccc4ncc(F)cc43)CC2)c1` [compound 123, trans-5-((S)-2-(4-((6-fluoro-1H-pyrrolo[3,2-b]pyridin-1-yl)methyl)cyclohexane-1-carbonyl)isoxazolidin-3-yl)nicotinonitrile], for which the IC50 in the assay on U937 cells was 12 nM; in assay [1], 46 nM.
For `Cc1cc2nnc(C)n2cc1C[C@H]1CC[C@H](C(=O)N2OCC[C@H]2c2ccc(F)c(F)c2)CC1` [compound 318, [(3S)-3-(3,4-difluorophenyl)isoxazolidin-2-yl]-[4-[(3,7-dimethyl-[1,2,4]triazolo[4,3-a]pyridin-6-yl)methyl]cyclohexyl]methanone], in that order: 27 nM and 22 nM.
For `NC(=O)c1cc(C[C@H]2CC[C@H](C(=O)N3OCC[C@H]3c3cnccn3)CC2)ccc1F` [compound 193, trans-2-fluoro-5-[[4-[(3S)-3-pyrazin-2-ylisoxazolidine-2-carbonyl]cyclohexyl]methyl]benzamide], in that order: 14 nM and 10 nM.
Turning to `Cc1nccn1-c1cc(F)cc(C[C@H]2CC[C@H](C(=O)N3OCC[C@H]3c3cncc(C#N)c3)CC2)c1` [compound 210, trans-5-[(3S)-2-[4-[[3-fluoro-5-(2-methylimidazol-1-yl)phenyl]methyl]cyclohexanecarbonyl]isoxazolidin-3-yl]pyridine-3-carbonitrile], the IC50 was 25 nM in the assay on U937 cells and 17 nM in assay [1].
Taken in the same sequence, the figures for `Cc1cc([C@@H]2CCON2C(=O)[C@H]2CC[C@H](Cn3cnc4cc(C#N)c(F)cc43)CC2)co1` [compound 40, trans-6-fluoro-1-((4-((S)-3-(5-methylfuran-3-yl)isoxazolidine-2-carbonyl)cyclohexyl)methyl)-1H-benzo[d]imidazole-5-carbonitrile] were 59 nM and 41 nM.
Taken in the same sequence, the figures for `N#Cc1ccc2c(c1)ncn2C[C@H]1CC[C@H](C(=O)N2OCC[C@H]2c2cncc(F)c2)CC1` [compound 6, trans-1-((4-((S)-3-(5-fluoropyridin-3-yl)isoxazolidine-2-carbonyl)cyclohexyl)methyl)-1H-benzo[d]imidazole-5-carbonitrile] were 377 nM and 154 nM.
For `Cc1cnc([C@@H]2CCON2C(=O)[C@H]2CC[C@H](Cc3cc(C)ncc3F)CC2)cn1` [compound 384, trans-[4-[(5-fluoro-2-methylpyridin-4-yl)methyl]cyclohexyl]-[(3S)-3-(5-methylpyrazin-2-yl)-1,2-oxazolidin-2-yl]methanone], in that order: 7 nM and 28 nM.
With `O=C([C@H]1CC[C@H](Cc2ccc3ncnn3c2)CC1)N1OCC[C@H]1c1cncc(F)c1` [compound 338, trans-[(3S)-3-(5-fluoropyridin-3-yl)-1,2-oxazolidin-2-yl]-[4-([1,2,4]triazolo[1,5-a]pyridin-6-ylmethyl)cyclohexyl]methanone], the IC50 came to 45 nM in the assay with U937 cells and 29 nM in assay [1].
Taken in the same sequence, the figures for `Cc1nc2ccc(C[C@H]3CC[C@H](C(=O)N4OCC[C@H]4c4ccc(F)c(F)c4)CC3)cn2n1` [compound 261, trans-[(3S)-3-(3,4-difluorophenyl)isoxazolidin-2-yl]-[4-[(2-methyl-[1,2,4]triazolo[1,5-a]pyridin-6-yl)methyl]cyclohexyl]methanone] were 17 nM and 23 nM.
Taken in the same sequence, the figures for `Cc1ccc([C@@H]2CCON2C(=O)[C@H]2CC[C@H](Cc3cc(C)ncc3F)CC2)cn1` [compound 386, trans-[4-[(5-fluoro-2-methylpyridin-4-yl)methyl]cyclohexyl]-[(3S)-3-(6-methylpyridin-3-yl)-1,2-oxazolidin-2-yl]methanone] were 13 nM and 25 nM.
Taken in the same sequence, the figures for `Cc1ccc(CC23CCC(C(=O)N4OCC[C@H]4c4cc(F)cc(F)c4)(CC2)C3)cc1C(N)=O` [compound 269, 5-[[4-[(3S)-3-(3,5-difluorophenyl)isoxazolidine-2-carbonyl]norbornan-1-yl]methyl]-2-methyl-benzamide] were 28 nM and 13 nM.
Regarding `Cc1ccc([C@@H]2CCON2C(=O)C23CCC(Cc4ccc(C)c(C(N)=O)c4)(CC2)C3)cn1` [compound 271, 2-methyl-5-[[4-[(3S)-3-(6-methyl-3-pyridyl)isoxazolidine-2-carbonyl]norbornan-1-yl]methyl]benzamide], the IC50 was determined as 605 nM with U937 cells and 97 nM in assay [1].
For `NC(=O)c1cc2c(cc1F)ncn2C[C@H]1CC[C@H](C(=O)N2OCC[C@H]2c2cc(F)cc(F)c2)CC1` [compound 71, trans-1-((4-((S)-3-(3,5-difluorophenyl)isoxazolidine-2-carbonyl)cyclohexyl)methyl)-5-fluoro-1H-benzo[d]imidazole-6-carboxamide], in that order: 93 nM and 37 nM.
For `Cc1nc2c(C)cc(C[C@H]3CC[C@H](C(=O)N4OCC[C@H]4c4cnc(C)c(F)c4)CC3)cn2n1` [compound 330, trans-[4-[(2,8-dimethyl-[1,2,4]triazolo[1,5-a]pyridin-6-yl)methyl]cyclohexyl]-[(3S)-3-(5-fluoro-6-methylpyridin-3-yl)-1,2-oxazolidin-2-yl]methanone], in that order: 18 nM and 20 nM.
`Cc1cnc([C@@H]2CCON2C(=O)[C@H]2CC[C@H](Cc3ccnn3C)CC2)cn1` [compound 395, trans-[(3S)-3-(5-methylpyrazin-2-yl)-1,2-oxazolidin-2-yl]-[4-[(2-methylpyrazol-3-yl)methyl]cyclohexyl]methanone]: the IC50 was 45 nM with U937 cells and 44 nM in assay [1].
For `Cc1cncc([C@@H]2CCON2C(=O)[C@H]2CC[C@H](Cc3ccc(F)c(C(N)=O)c3)CC2)n1` [compound 299, trans-2-fluoro-5-[[4-[(3S)-3-(6-methylpyrazin-2-yl)isoxazolidine-2-carbonyl]cyclohexyl]methyl]benzamide], in that order: 19 nM and 14 nM.
For `N#Cc1cc(F)cc([C@@H]2CCON2C(=O)[C@H]2CC[C@H](Cn3cc4c(F)cc(C#N)cc4n3)CC2)c1` [compound 34, trans-2-((4-((S)-3-(3-cyano-5-fluorophenyl)isoxazolidine-2-carbonyl)cyclohexyl)methyl)-4-fluoro-2H-indazole-6-carbonitrile], in that order: 69 nM and 37 nM.
Regarding `Cc1c(C#N)ncn1C[C@H]1CC[C@H](C(=O)N2OCC[C@H]2c2cc(F)cc(F)c2)CC1` [compound 91, trans-1-((4-((S)-3-(3,5-difluorophenyl)isoxazolidine-2-carbonyl)cyclohexyl)methyl)-5-methyl-1H-imidazole-4-carbonitrile], the IC50 was 67 nM in the assay with U937 cells and 39 nM in assay [1].
For `O=c1oc2ccccc2n1C[C@H]1CC[C@H](C(=O)N2OCC[C@H]2c2cc(F)cc(F)c2)CC1` [compound 20, trans-3-((4-((S)-3-(3,5-difluorophenyl)isoxazolidine-2-carbonyl)cyclohexyl)methyl)benzo[d]oxazol-2(3H)-one], in that order: 5 nM and 20 nM.
For `N#Cc1cc(F)cc([C@@H]2CCON2C(=O)[C@H]2CC[C@H](Cc3ccc(CO)c(F)c3)CC2)c1` [compound 266, trans-3-fluoro-5-[(3S)-2-[4-[[3-fluoro-4-(hydroxymethyl)phenyl]methyl]cyclohexanecarbonyl]isoxazolidin-3-yl]benzonitrile], in that order: 1 nM and 13 nM.
For `N#Cc1cc(F)cc([C@@H]2CCON2C(=O)[C@H]2CC[C@H](Cc3ccc4ncnn4c3)CC2)c1` [compound 142, trans-3-fluoro-5-[(3S)-2-[4-([1,2,4]triazolo[1,5-a]pyridin-6-ylmethyl)cyclohexanecarbonyl]isoxazolidin-3-yl]benzonitrile], the IC50 with U937 cells was found to be 4 nM; in assay [1] it was 38 nM.
For `Cc1nc([C@@H]2CCON2C(=O)[C@H]2CC[C@H](Cc3ccc(C)c(C(N)=O)c3)CC2)cs1` [compound 159, trans-2-methyl-5-[[4-[(3S)-3-(2-methylthiazol-4-yl)isoxazolidine-2-carbonyl]cyclohexyl]methyl]benzamide], in that order: 48 nM and 7 nM.
For `Cc1nn(C[C@H]2CC[C@H](C(=O)N3OCC[C@H]3c3cc(F)cc(C#N)c3)CC2)c2cc(C#N)cc(F)c12` [compound 100, trans-1-((4-((S)-3-(3-cyano-5-fluorophenyl)isoxazolidine-2-carbonyl)cyclohexyl)methyl)-4-fluoro-3-methyl-1H-indazole-6-carbonitrile], the IC50 came out at 4 nM with U937 cells and 17 nM in assay [1].
Taken in the same sequence, the figures for `Cc1cc(-c2cncc(C[C@H]3CC[C@H](C(=O)N4OCC[C@H]4c4cnccn4)CC3)c2)n(C)n1` [compound 305, trans-[4-[[5-(2,5-dimethylpyrazol-3-yl)-3-pyridyl]methyl]cyclohexyl]-[(3S)-3-pyrazin-2-ylisoxazolidin-2-yl]methanone] were 43 nM and 29 nM.
